Source: patent US12227488B2, “Small molecule degraders of Helios and methods of use” (DANA-FARBER CANCER INSTITUTE, INC., priority 2018, dated 2025)

Tests used:
IKZF1 = biological target: T1, IKZF1 (Homo sapiens, UniProt Q13422); assay: Cellular degradation assay, eGFP-IKZF1Δ fusion with mCherry reporter in Flp-In 293 cells; format: cell-based; conditions: for IKZF1 GFP/RFP Relative Abundance: 5 h incubation, n=1
T1 construct: expressed in transfected cells; host or cells: Flp-In 293
Experimental: (§1) IKZF1Δ, IKZF2Δ, GSPT1 and SALL4 ZnF1-2 were subcloned into mammalian pcDNA5/FRT Vector (Ampicillin and Hygromycin B resistant) modified to contain MCS-eGFP-P2A-mCherry. […] Following 2-3 passage cycle, FACS (FACSAria™ II, BD) was used to enrich for cells expressing eGFP and mCherry. Cells stably expressing the IKZF1Δ, IKZF2Δ, GSPT1 or SALL4 Znf1-2 GFP fusions with mCherry reporter were seeded at 30-50% confluency in 384-well plates with 50 μL FluoroBrite™ DMEM media (Thermo Fisher Scientific, A18967) containing 10% FBS per well a day before compound treatment. Compound titrations were dispensed using a D300e Digital Dispenser (HP), normalized to 0.5% DMSO, and incubated with cells for 5 hours.
(§2) The resulting images were analyzed using CellProfiler™. A series of image analysis steps (‘image analysis pipeline’) was constructed. First, the red and green channels were aligned and cropped to target the middle of each well (to avoid analysis of heavily clumped cells at the edges), and a background illumination function was calculated for both red and green channels of each well individually and subtracted to correct for illumination variations across the 384-well plate from various sources of error. An additional step was then applied to the green channel to suppress the analysis of large auto fluorescent artifacts and enhance the analysis of cell specific fluorescence by way of selecting for objects under a given size, 30 A.U., and with a given shape, speckles. mCherry-positive cells were then identified in the red channel filtering for objects between 8-60 pixels in diameter and using intensity to distinguish between clumped objects. The green channel was then segmented into GFP positive and negative areas and objects were labeled as GFP positive if at least 40% of it overlapped with a GFP positive area. The fraction of GFP-positive cells/mCherry-positive cells in each well was then calculated, and the green and red images were rescaled for visualization.
(§3) The degradation assay was performed as described above. […] Degradation was measured after 5 h of compound treatment and the concentrations that lead to half degradation at 5 h (DC50,5 h) were calculated using the nonlinear fit variable slope model (GraphPad Software).

IKZF2 = assay: Cellular degradation assay, eGFP-IKZF2Δ fusion with mCherry reporter in Flp-In 293 cells; format: cell-based; conditions: for IKZF2 GFP/RFP Relative Abundance: 5 h incubation, n=1
Experimental: as §1, §2, §3

GSPT1 = GSPT1 (Homo sapiens, UniProt P15170+Q96SW2); assay: Cellular degradation assay, eGFP-GSPT1 fusion with mCherry reporter in Flp-In 293 cells; format: cell-based; design: expressed in transfected cells; host or cells: Flp-In 293; conditions: half degradation at 5 h (DC50,5 h); triplicate, 11 point dose response
Experimental: as §1, §2, §3

CRBN and Helios (IKZF2) = biological target: T2, CRBN and Helios (IKZF2) (Homo sapiens, UniProt Q96SW2+Q9UKS7); assay: TR-FRET dimerization assay (CRBN-IKZF2 ternary complex formation); format: binding; conditions: n=1
T2 construct: His (N); Strep (N)
Experimental: A focused library of imide analogs was synthesized and assessed for their ability to induce dimerization between CRBN and Helios in a time-resolved fluorescence energy transfer (TR-FRET) assay (FIG. 1A).
Prior to TR-FRET measurements being conducted, the reactions were incubated for 15 min at rt. […] The TR-FRET signal of each data point was extracted by calculating the 520/490 nm ratios. Data from single measurements (n=1), each calculated as an average of at least three technical replicates per well per experiment are presented in Table 1.
BODIPY-labeled CRBN in complex with Damage Specific DNA Binding Protein 1 (DDB1) harboring an internal deletion of the flexible BPB propeller (DDB1AB-CRBN) and in vitro biotinylated IKZF2 were treated with increasing concentrations of the indicated compounds in the presence of tracer amounts of Terbium-Streptavidin (Tb-SA). Compound-induced recruitment of IKZF2 to CRBN was quantified following the 520/490 TR-FRET ratio using a PHERAstar® plate reader (BMG) utilizing two synchronized PMTs to reduce background.

[1] = half degradation at 5 h (DC50,5 h), triplicate, 11 point dose response
[2] = compound concentration 2.00E−05
[3] = compound concentration 2.00E−06
[4] = compound concentration 2.00E−07
[5] = compound concentration 6.6667E−05
[6] = compound concentration 6.6667E−06
[7] = compound concentration 6.6667E−07 (667 nM)

T1 sequence (Q13422 83-213 isoform Q13422-7 limits assumed): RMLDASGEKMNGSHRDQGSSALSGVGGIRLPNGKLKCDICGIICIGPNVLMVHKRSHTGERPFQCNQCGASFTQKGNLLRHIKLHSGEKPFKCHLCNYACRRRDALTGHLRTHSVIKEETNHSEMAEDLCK
T1 sequence (Q96SW2 whole entry partner, the tested form may be a part): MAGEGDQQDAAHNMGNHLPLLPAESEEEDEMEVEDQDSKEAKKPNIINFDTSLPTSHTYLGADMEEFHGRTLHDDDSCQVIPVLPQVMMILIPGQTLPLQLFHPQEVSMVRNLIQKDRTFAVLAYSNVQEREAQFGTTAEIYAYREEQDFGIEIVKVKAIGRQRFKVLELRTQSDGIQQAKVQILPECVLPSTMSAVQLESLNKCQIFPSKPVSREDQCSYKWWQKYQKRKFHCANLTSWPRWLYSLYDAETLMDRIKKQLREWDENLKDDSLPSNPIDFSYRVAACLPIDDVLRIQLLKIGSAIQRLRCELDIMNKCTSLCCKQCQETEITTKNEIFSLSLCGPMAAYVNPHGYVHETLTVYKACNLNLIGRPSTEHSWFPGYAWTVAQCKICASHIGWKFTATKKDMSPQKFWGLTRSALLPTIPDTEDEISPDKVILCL
T1 sequence (Q16531 2-1140 partner limits assumed): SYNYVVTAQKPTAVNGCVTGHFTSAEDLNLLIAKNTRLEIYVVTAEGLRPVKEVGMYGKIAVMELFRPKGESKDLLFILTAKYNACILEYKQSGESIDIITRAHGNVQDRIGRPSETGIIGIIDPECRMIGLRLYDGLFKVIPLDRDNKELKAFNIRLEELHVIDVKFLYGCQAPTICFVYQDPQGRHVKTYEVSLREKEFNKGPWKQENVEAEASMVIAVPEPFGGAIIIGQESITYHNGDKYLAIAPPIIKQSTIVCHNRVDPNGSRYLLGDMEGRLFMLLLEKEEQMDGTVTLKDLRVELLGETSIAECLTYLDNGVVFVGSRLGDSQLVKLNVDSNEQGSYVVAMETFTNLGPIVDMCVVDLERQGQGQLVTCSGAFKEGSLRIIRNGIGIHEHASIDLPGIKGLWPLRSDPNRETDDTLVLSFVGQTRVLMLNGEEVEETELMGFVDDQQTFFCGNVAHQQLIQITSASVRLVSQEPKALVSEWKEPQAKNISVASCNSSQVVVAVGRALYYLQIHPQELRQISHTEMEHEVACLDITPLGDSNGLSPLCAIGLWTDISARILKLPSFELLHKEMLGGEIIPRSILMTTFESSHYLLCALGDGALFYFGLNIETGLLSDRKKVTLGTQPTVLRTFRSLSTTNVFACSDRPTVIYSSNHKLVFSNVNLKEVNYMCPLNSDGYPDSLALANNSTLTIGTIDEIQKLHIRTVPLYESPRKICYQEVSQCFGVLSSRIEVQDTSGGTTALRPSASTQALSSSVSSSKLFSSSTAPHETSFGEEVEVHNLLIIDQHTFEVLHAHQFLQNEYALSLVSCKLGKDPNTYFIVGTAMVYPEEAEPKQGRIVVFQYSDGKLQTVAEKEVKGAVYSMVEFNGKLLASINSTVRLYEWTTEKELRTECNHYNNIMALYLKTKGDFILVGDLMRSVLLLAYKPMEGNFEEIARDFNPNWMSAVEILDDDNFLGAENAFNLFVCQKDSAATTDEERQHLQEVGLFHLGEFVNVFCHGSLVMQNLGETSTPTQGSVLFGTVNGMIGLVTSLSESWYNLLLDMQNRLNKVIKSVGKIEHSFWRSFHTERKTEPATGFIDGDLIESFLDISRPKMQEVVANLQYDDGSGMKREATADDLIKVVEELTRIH
T2 sequence (Q96SW2 whole entry): as the sequence (Q96SW2 whole entry partner, the tested form may be a part) above
T2 sequence (Q9UKS7 whole entry): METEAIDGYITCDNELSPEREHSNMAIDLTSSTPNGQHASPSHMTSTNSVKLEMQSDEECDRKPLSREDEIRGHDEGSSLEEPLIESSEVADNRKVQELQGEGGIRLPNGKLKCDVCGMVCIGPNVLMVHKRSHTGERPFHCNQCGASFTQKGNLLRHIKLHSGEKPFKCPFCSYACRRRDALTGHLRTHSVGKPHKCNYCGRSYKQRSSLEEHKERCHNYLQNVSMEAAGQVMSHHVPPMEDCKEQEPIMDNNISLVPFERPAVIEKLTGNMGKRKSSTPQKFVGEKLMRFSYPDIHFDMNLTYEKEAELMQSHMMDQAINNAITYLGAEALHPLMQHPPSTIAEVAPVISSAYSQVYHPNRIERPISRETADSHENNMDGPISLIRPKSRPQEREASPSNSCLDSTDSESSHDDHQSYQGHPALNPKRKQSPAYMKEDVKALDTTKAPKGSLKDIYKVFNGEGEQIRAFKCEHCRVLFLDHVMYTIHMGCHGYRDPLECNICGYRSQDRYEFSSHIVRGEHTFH
GSPT1, sequence (P15170 whole entry, the tested form may be a part): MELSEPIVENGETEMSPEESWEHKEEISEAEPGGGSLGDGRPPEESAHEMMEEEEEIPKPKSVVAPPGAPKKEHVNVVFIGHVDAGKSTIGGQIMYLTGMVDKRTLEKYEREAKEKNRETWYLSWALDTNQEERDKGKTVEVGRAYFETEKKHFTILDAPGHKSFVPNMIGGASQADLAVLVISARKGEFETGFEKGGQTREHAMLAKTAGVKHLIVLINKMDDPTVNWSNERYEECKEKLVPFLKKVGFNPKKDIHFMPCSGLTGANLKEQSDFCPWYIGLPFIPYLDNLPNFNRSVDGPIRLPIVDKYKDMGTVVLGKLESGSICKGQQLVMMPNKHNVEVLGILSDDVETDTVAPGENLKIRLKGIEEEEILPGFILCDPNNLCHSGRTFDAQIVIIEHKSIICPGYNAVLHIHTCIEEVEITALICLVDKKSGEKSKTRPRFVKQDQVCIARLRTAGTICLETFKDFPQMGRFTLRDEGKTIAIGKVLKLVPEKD
GSPT1, sequence (Q96SW2 whole entry, the tested form may be a part): as the sequence (Q96SW2 whole entry partner, the tested form may be a part) above
GSPT1, sequence (Q16531 whole entry partner, the tested form may be a part): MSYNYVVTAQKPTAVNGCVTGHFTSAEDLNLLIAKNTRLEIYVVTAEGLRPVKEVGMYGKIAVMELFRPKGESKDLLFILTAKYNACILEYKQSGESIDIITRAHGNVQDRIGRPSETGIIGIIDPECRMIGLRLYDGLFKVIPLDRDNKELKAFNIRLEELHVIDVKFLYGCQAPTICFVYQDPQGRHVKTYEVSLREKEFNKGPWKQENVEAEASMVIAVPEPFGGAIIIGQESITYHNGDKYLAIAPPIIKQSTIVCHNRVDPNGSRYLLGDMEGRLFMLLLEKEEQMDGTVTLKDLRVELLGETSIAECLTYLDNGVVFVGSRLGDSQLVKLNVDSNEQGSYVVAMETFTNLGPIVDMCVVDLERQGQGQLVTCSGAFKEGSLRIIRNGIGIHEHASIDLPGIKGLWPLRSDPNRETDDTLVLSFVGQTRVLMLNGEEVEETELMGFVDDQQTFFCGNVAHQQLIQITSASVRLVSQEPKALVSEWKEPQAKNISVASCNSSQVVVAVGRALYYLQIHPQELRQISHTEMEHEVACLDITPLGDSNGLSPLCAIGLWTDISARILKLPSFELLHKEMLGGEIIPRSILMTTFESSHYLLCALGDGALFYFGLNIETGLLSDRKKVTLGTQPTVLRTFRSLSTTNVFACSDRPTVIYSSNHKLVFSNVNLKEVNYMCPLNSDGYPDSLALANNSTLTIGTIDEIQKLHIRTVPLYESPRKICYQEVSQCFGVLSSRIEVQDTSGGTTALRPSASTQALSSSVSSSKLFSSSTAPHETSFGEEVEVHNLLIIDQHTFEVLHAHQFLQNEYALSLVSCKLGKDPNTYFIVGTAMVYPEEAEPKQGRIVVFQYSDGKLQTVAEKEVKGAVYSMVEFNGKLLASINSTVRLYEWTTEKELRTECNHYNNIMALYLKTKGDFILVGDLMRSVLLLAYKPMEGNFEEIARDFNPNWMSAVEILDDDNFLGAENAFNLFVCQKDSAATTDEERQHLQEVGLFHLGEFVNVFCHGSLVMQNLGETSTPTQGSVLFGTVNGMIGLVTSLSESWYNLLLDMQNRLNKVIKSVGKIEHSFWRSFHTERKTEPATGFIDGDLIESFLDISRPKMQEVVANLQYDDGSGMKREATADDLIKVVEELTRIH

| SMILES | DC50 (IKZF1; [1]) | degradation selectivity IKZF2/IKZF1 (IKZF2; from DC50 values of Table 3) | DC50 (IKZF2; [1]) | DC50 (GSPT1) | IKZF1 GFP/RFP Relative Abundance (IKZF1; [2]) | IKZF1 GFP/RFP Relative Abundance (IKZF1; [3]) | IKZF1 GFP/RFP Relative Abundance (IKZF1; [4]) | TR-FRET-IKZF2 (Normalized to CC-885) (CRBN and Helios (IKZF2); [5]) | TR-FRET-IKZF2 (Normalized to CC-885) (CRBN and Helios (IKZF2); [6]) | TR-FRET-IKZF2 (Normalized to CC-885) (CRBN and Helios (IKZF2); [7]) | IKZF2 GFP/RFP Relative Abundance (IKZF2; [2]) | IKZF2 GFP/RFP Relative Abundance (IKZF2; [3]) | IKZF2 GFP/RFP Relative Abundance (IKZF2; [4]) |
| --- | --- | --- | --- | --- | --- | --- | --- | --- | --- | --- | --- | --- | --- |
| CC(C)(NC(=O)Cc1cccc(C(F)(F)F)c1)c1cccc(NC2=CC(=O)N(C3CCC(=O)NC3=O)C2=O)c1 (stereo not shown) [Compound 139, N-(2-(3-((1-(2,6-dioxopiperidin-3-yl)-2,5-dioxo-2,5-dihydro-1H-pyrrol-3-yl)amino)phenyl)propan-2-yl)-2-(3-(trifluoromethyl)phenyl)acetamide] | 167 nM | 10 fold | 17 nM | > 1000 nM |  |  |  |  |  |  |  |  |  |
| Cc1ccc(NC(=O)NC(CC(=O)N(C)C)c2cccc(NC3=CC(=O)N(C4CCC(=O)NC4=O)C3=O)c2)cc1Cl (stereo not shown) [Compound 76, 3-(3-(3-chloro-4-methylphenyl)ureido)-3-(3-((1-(2,6-dioxopiperidin-3-yl)-2,5-dioxo-2,5-dihydro-1H-pyrrol-3-yl)amino)phenyl)-N,N-dimethylpropanamide] |  |  |  |  | 0.103 | 0.069 | 0.107 | 1.961 | 1.657 | 1.577 | 0.027 | 0.036 | 0.032 |
| Cc1ccc(NC(=O)N[C@H](C)c2cccc(NC3=CC(=O)N(C4CCC(=O)NC4=O)C3=O)c2)cc1Cl (stereo partly drawn) [Compound 70, 1-(3-chloro-4-methylphenyl)-3-((1R)-1-(3-((1-(2,6-dioxopiperidin-3-yl)-2,5-dioxo-2,5-dihydro-1H-pyrrol-3-yl)amino)phenyl)ethyl)urea] |  |  |  |  | 0.076 | 0.080 | 0.103 | 1.531 | 1.409 | 1.271 | 0.021 | 0.057 | 0.031 |
| Cc1ccc(NC(=O)NCCc2cccc(NC3=CC(=O)N(C4CCC(=O)NC4=O)C3=O)c2)cc1C(F)(F)F (stereo not shown) [Compound 126, 1-(3-((1-(2,6-dioxopiperidin-3-yl)-2,5-dioxo-2,5-dihydro-1H-pyrrol-3-yl)amino)phenethyl)-3-(4-methyl-3-(trifluoromethyl)phenyl)urea] |  |  |  |  | 0.177 | 0.072 | 0.100 | 1.762 | 1.603 | 1.420 | 0.059 | 0.033 | 0.047 |
| Cc1cc(CNC(=O)NCc2cccc(NC3=CC(=O)N(C4CCC(=O)NC4=O)C3=O)c2)ccc1Cl (stereo not shown) [Compound 82, 1-(4-chloro-3-methylbenzyl)-3-(3-((1-(2,6-dioxopiperidin-3-yl)-2,5-dioxo-2,5-dihydro-1H-pyrrol-3-yl)amino)benzyl)urea] |  |  |  |  | 0.085 | 0.085 | 0.069 | 0.999 | 0.975 | 0.838 | 0.158 | 0.220 | 0.293 |
| Cc1ccc(CNC(=O)CCc2cccc(NC3=CC(=O)N(C4CCC(=O)NC4=O)C3=O)c2)cc1Cl (stereo not shown) [Compound 121, N-(3-chloro-4-methylbenzyl)-3-(3-((1-(2,6-dioxopiperidin-3-yl)-2,5-dioxo-2,5-dihydro-1H-pyrrol-3-yl)amino)phenyl)propanamide] |  |  |  |  | 0.125 | 0.093 | 0.120 | 1.521 | 1.376 | 1.357 | 0.071 | 0.087 | 0.051 |
| Cc1ccc(NC(=O)OCCc2cccc(NC3=CC(=O)N(C4CCC(=O)NC4=O)C3=O)c2)cc1Cl (stereo not shown) [Compound 110, 3-((1-(2,6-dioxopiperidin-3-yl)-2,5-dioxo-2,5-dihydro-1H-pyrrol-3-yl)amino)phenethyl (3-chloro-4-methylphenyl)carbamate] |  |  |  |  | 0.096 | 0.066 | 0.086 | 1.017 | 1.086 | 0.853 | 0.048 | 0.048 | 0.038 |
| O=C1CCC(N2C(=O)C=C(Nc3cccc(CNC(=O)Nc4ccccc4)c3)C2=O)C(=O)N1 (stereo not shown) [Compound 119, 1-(3-((1-(2,6-dioxopiperidin-3-yl)-2,5-dioxo-2,5-dihydro-1H-pyrrol-3-yl)amino)benzyl)-3-phenylurea] |  |  |  |  | 0.055 | 0.079 | 0.101 | 0.817 | 0.671 | 0.629 | 0.392 | 0.516 | 0.544 |
| Cc1ccc(NC(=O)N2CCc3ccc(NC4=CC(=O)N(C5CCC(=O)NC5=O)C4=O)cc3C2)cc1Cl (stereo not shown) [Compound 109, N-(3-chloro-4-methylphenyl)-7-((1-(2,6-dioxopiperidin-3-yl)-2,5-dioxo-2,5-dihydro-1H-pyrrol-3-yl)amino)-3,4-dihydroisoquinoline-2(1H)-carboxamide] |  |  |  |  | 0.189 | 0.101 | 0.142 | 0.463 | 0.640 | 0.506 | 0.563 | 0.313 | 0.539 |
| Cc1ccc(NC(=O)N2Cc3ccc(NC4=CC(=O)N(C5CCC(=O)NC5=O)C4=O)cc3C2)cc1Cl (stereo not shown) [Compound 107, N-(3-chloro-4-methylphenyl)-5-((1-(2,6-dioxopiperidin-3-yl)-2,5-dioxo-2,5-dihydro-1H-pyrrol-3-yl)amino)isoindoline-2-carboxamide] |  |  |  |  | 0.245 | 1.043 | 0.997 | 0.086 | 0.066 | 0.066 | 0.225 | 1.034 | 1.048 |
| O=C1CCC(N2C(=O)C=C(Nc3cccc(CNC(=O)NCc4ccccc4)c3)C2=O)C(=O)N1 (stereo not shown) [Compound 81, 1-benzyl-3-(3-((1-(2,6-dioxopiperidin-3-yl)-2,5-dioxo-2,5-dihydro-1H-pyrrol-3-yl)amino)benzyl)urea] |  |  |  |  | 0.063 | 0.056 | 0.094 | 0.703 | 0.585 | 0.519 | 0.587 | 0.660 | 0.737 |
